Results: EP0933027A1, “Methods and compositions for protecting animals and humans against attack and infestation by arthropod and helminth parasites” (American Cyanamid Company, priority 1998, dated 1999)
Read-outs that look alike come from different tables or passages of the source.

Columns and labels:
[1] = tested on: Musca domestica; experiment: Coated vial test against adult house fly
Protocol: This test is designed to evaluate the activity of test compounds against the house fly. Test compounds are dissolved in 100% acetone to 1000, 300, 100, 10 and 1 ppm. 100 µL of each of these dilutions is added to the bottom of a 20 mL glass scintillation vial with a pipettor. The vial is allowed to dry under a fume hood for 15 minutes. The vial is then turned on its side, and 250 µL of each dilution is applied to the sides of the vial. The vial is placed on a rolling machine and allowed to roll under the hood, coating the sides of the vial, until the acetone completely evaporates. The bottom of the vial measures 4.909 cm^2 and the sides measure 4.5 cm high x 8.8 cm around, so that the total coated area of the scintillation vial measures 44.51 cm^2. The amount of test compound applied by each dilution equals 7.86, 2.36, 0.79, 0.079, and 0.0079 µg/cm^2, respectively. Included in all tests are two to three replications of untreated vials. Adult house flies which are five to seven days old are chilled in a freezer for five minutes to immobilize, and are placed on a sorting platform which provides a steady stream of CO2 to keep the flies immobile. Five flies are counted into each scintillation vial with forceps. The top of the vial is plugged with a wad of sheet cotton sufficient to contain the flies. These tests are done in replicates of two to four so that there are 10 to 20 flies per rate/compound. Mortality readings are taken 1 and 4 hours after placing the flies in the vials. Flies which are unable to stand when disturbed are considered dead. Percent mortality is then calculated for each treatment.

[2] = tested on: Dermacentor variabilis; experiment: Contact activity against larval American dog tick (coated vial)
Protocol: This test is designed to evaluate the contact activity of test compounds against the American dog tick. Test compounds are dissolved in 100% acetone to 1000, 300, 100, 10, 1 and 0.1 ppm. 100 µL of each of these dilutions is added to the bottom of a 20 mL glass scintillation vial with a pipettor. The vial is allowed to dry under a fume hood for 15 minutes. The vial is then turned in its side, and 250 µL of each dilution is applied to the sides of the vial. The vial is placed on a rolling machine and allowed to roll under the hood, coating the sides of the vial, until the acetone completely evaporates. The bottom of the vial measures 4.909 cm^2 and the sides measure 4.5 cm high x 8.8 cm around, so that the total coated area of the scintillation vial measures 44.51 cm^2. The amount of test compound applied by each dilution equals 7.86, 2.36, 0.79, 0.079, 0.0079 and 0.00079 µg/cm^2, respectively. Unfed larval dog ticks are counted into the scintillation vials with a slightly damp paintbrush. Ten ticks are placed in each vial. These tests are done in replicates of two or three so that there are 20 to 30 ticks per rate/compound. Mortality readings are taken 4 and 24 hours after placing the ticks in the vials. To read the test, the vial is placed under a magnifying glass and tapped gently. […] Percent mortality is then calculated for each treatment.

[3] = dose 0.079 µg/cm^2, 4 hours, read-out: 4 Hour % Mortality
[4] = dose 0.790 µg/cm^2, 4 hours, read-out: 4 Hour % Mortality
[5] = dose 2.360 µg/cm^2, 4 hours, read-out: 4 Hour % Mortality

CCOc1ccc(C(/C(F)=C/Cc2ccc(F)c(Oc3ccccc3)c2)C2CC2)cc1 (centres unmarked) [Compound 10, 1-[1-(p-Ethoxyphenyl)-2-fluoro-4-(4-fluoro-3-phenoxyphenyl)-2-butenyl]cyclopropane, (Z)-]
mortality at 0.079 µg/cm2 ([1]; dose 0.079 µg/cm^2, 1 hour, read-out: 1 Hour % Mortality): 20%
mortality at 0.079 µg/cm2 [1, 3]: 60%
mortality at 0.79 µg/cm2 ([1]; dose 0.790 µg/cm^2, 1 hour, read-out: 1 Hour % Mortality): 20%
mortality at 0.79 µg/cm2 [1, 4]: 75%
mortality at 2.36 µg/cm2 ([1]; dose 2.360 µg/cm^2, 1 hour, read-out: 1 Hour % Mortality): 40%
mortality at 2.36 µg/cm2 [1, 5]: 100%
mortality at 0.079 µg/cm2 [2, 3]: 100%
mortality at 0.079 µg/cm2 ([2]; dose 0.079 µg/cm^2, 24 hours, read-out: 24 Hour % Mortality): 100%
mortality at 0.79 µg/cm2 [2, 4]: 100%
mortality at 0.79 µg/cm2 ([2]; dose 0.790 µg/cm^2, 24 hours, read-out: 24 Hour % Mortality): 100%
mortality at 2.36 µg/cm2 [2, 5]: 100%
mortality at 2.36 µg/cm2 ([2]; dose 2.360 µg/cm^2, 24 hours, read-out: 24 Hour % Mortality): 100%
mortality at 7.86 µg/cm2 ([2]; dose 7.860 µg/cm^2, 4 hours, read-out: 4 Hour % Mortality): 100%
mortality at 7.86 µg/cm2 ([2]; dose 7.860 µg/cm^2, 24 hours, read-out: 24 Hour % Mortality): 100%
